# Data reported in ChEMBL document CHEMBL1201862, “PubChem BioAssay data set” (2004).
#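 Results reflect a 48-hour exposure of cells in 96-well plates to compound at five concentrations. GI50 is the concentration that inhibits growth by half.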 Activity calls are given as the source filed them. No stated cut-off is given here; in the data, active = GI50 up to about 1.1 µM and inactive = higher.
# Tests used:
# Assay in all cases: DTP human tumour cell line panel, 48 h
# [1] = test system: MCF7
# [2] = test system: SK-OV-3
# [3] = test system: K562
# [4] = test system: SN12C
# [5] = test system: RXF 393
# [6] = test system: NCI/ADR-RES
# [7] = test system: SNB-78
# [8] = test system: TK-10
# [9] = test system: ACHN
# [10] = test system: M14
# [11] = test system: SR
# [12] = test system: 786-0
SMILES,GI50 [1],GI50 [2],GI50 [3],GI50 [4],GI50 [5],GI50 [6],GI50 [7],GI50 [8],GI50 [9],GI50 [10],GI50 [11],GI50 [12]
Nc1nc(Cl)nc2c1ncn2C1CC(O)C(CO)O1 (centres undefined),9.75 µM (inactive),52.7 µM (inactive),13.4 µM (inactive),0.738 µM (active),24.9 µM (inactive),0.103 µM (active),> 100 µM (inactive),,,,,
O=Cc1ccccc1CCn1c(=O)c2cc3c(=O)n(CCc4ccccc4C=O)c(=O)c3cc2c1=O,,> 100 µM (inactive),> 100 µM (inactive),> 100 µM (inactive),> 100 µM (inactive),,> 100 µM (inactive),> 100 µM (inactive),> 100 µM (inactive),,,
O=C1CCCN1CCC/N=c1/cc2n(-c3ccc(Cl)cc3)c3ccccc3nc-2cc1Nc1ccc(Cl)cc1,7.24 µM (inactive),46.7 µM (inactive),9.23 µM (inactive),14.8 µM (inactive),1.78 µM (inactive),15.6 µM (inactive),18.9 µM (inactive),,,,,
C=C1C(=O)O[C@@H]2[C@H](O)[C@@H](C)[C@@H]3C=CC(=O)[C@@]3(C)[C@@H](OC(=O)/C(C)=C/C)[C@H]12,0.518 µM (active),2.39 µM (inactive),0.483 µM (active),0.465 µM (active),0.63 µM (active),0.811 µM (active),0.871 µM (active),,,,,
CC(C)(C)c1ccc2c(c1)OP1(Oc3c(Cl)cc(Cl)c4cccnc34)(O2)Oc2ccc(C(C)(C)C)cc2O1,4.58 µM (inactive),11.9 µM (inactive),3.94 µM (inactive),11 µM (inactive),13.3 µM (inactive),8.11 µM (inactive),23 µM (inactive),,,,,
COc1cc2c(cc1O)N=C[C@@H]1CC[C@@H](O)N1C2=O.COc1cc2c(cc1O)N=C[C@@H]1CC[C@H](O)N1C2=O,0.946 µM (active),4.41 µM (inactive),0.849 µM (active),1.04 µM (active),0.281 µM (active),0.855 µM (active),0.631 µM (active),,,,,
O=S(=O)(N/N=C/c1ccc(Cl)cc1Cl)c1ccccc1,,91.8 µM (inactive),59 µM (inactive),27.4 µM (inactive),77.1 µM (inactive),,> 100 µM (inactive),> 100 µM (inactive),> 100 µM (inactive),81.1 µM (inactive),57 µM (inactive),> 100 µM (inactive)
C/C(CC(=O)Nc1ccccc1)=N\NC(N)=S,,> 100 µM (inactive),> 100 µM (inactive),,> 100 µM (inactive),,> 100 µM (inactive),> 100 µM (inactive),,> 100 µM (inactive),,> 100 µM (inactive)
Cc1cc(O)nc(NN2C(Cl)C(=O)C2c2cccc(Cl)c2)n1 (centres undefined),,,17.6 µM (inactive),20.5 µM (inactive),8.18 µM (inactive),,22.2 µM (inactive),36.1 µM (inactive),30 µM (inactive),17.4 µM (inactive),16 µM (inactive),
CCCCCCCCCCCCSC(=S)c1c(C)[nH]n(CCCCCCCCCCCC)c1=O,,> 100 µM (inactive),> 100 µM (inactive),77.1 µM (inactive),,,> 100 µM (inactive),,55.2 µM (inactive),> 10 µM (inactive),> 100 µM (inactive),
